These results are taken from patent US20240226107A1, “UBIQUITIN-SPECIFIC PROTEASE 1 (USP1) INHIBITOR” (SIMCERE ZAIMING PHARMACEUTICAL CO., LTD., priority 2021, published 2024).

The target of experiment [1] is USP1 (Recombinant Human His6-USP1/His6-UAF1 Complex Protein) (Homo sapiens (Human), UniProt O94782). Put plainly: In vitro activity assay for USP1 (Ub-CHOP2-Reporter deubiquitination assay). Type of experiment: biochemical. As to conditions: 0.5 h incubation at room temperature, read-out: In vitro inhibitory activity of USP1 IC50. As for the experimental part:
The assay kit (Ub-CHOP2-Reporter Deubiquitination Assay Kit) was purchased from Lifesensors, with Cat. No. of PR1101. The assay kit was subpackaged and stored at −80° C.
Each compound to be tested was dissolved with DMSO to 10 mM. The compound and pure DMSO (with a total volume of 50 nL) were loaded to each well of the 384-well plate by using an ECHO instrument to obtain gradient-diluted sample concentrations at different ratios. The enzyme was diluted with a freshly prepared reaction solution (20 mM Tris-HCl (pH 8.0), 2 mM CaCl2, 2 mM β-mercaptoethanol, 0.05% CHAPS, and ddH2O). To each well, 5 μL of diluted enzyme reaction solution was added, then the plate was centrifuged and oscillated to mix the enzyme and the compound, and the mixture was centrifuged again and placed on ice. The kit reporter system and the substrate were diluted with the reaction solution, then 5 μL of diluted liquid was added to each well, and mixed by centrifugation. The mixture was incubated at room temperature for 0.5 h. […] The inhibitory activity (IC50 values) of the compound on enzyme activity was calculated by using a four-parameter Logistic Model. […] A, B, C, and D are four parameters.
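For GI50 in this document: MDA-MB-436 proliferation over 7 days with compound, viability read as ATP luminescence (CellTiter-Glo), inhibition relative to DMSO-only wells, day 0 signal as background, GI50 from four-parameter fit.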

Sequence of USP1 (Recombinant Human His6-USP1/His6-UAF1 Complex Protein) (O94782 whole entry): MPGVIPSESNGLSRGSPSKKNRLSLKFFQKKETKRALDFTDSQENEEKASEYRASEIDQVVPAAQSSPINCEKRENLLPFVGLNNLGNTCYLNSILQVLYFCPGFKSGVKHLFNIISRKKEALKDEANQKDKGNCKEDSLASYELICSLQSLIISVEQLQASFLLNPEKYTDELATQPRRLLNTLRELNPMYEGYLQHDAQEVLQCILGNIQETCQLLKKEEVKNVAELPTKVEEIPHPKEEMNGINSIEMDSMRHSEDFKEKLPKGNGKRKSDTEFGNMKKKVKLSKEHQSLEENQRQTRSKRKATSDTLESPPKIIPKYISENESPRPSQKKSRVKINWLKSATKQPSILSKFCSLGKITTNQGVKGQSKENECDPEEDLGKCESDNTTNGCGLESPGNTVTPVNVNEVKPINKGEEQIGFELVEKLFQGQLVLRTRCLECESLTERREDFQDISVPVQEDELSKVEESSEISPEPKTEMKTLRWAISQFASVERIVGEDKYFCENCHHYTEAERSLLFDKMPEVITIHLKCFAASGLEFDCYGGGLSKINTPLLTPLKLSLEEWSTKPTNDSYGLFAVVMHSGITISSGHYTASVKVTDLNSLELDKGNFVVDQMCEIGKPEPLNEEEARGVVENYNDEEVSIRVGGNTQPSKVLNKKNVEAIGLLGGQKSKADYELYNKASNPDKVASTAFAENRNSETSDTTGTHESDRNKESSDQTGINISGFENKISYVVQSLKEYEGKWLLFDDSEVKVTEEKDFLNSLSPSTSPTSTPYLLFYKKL
Sequence of USP1 (Recombinant Human His6-USP1/His6-UAF1 Complex Protein) (Q8TAF3 whole entry partner): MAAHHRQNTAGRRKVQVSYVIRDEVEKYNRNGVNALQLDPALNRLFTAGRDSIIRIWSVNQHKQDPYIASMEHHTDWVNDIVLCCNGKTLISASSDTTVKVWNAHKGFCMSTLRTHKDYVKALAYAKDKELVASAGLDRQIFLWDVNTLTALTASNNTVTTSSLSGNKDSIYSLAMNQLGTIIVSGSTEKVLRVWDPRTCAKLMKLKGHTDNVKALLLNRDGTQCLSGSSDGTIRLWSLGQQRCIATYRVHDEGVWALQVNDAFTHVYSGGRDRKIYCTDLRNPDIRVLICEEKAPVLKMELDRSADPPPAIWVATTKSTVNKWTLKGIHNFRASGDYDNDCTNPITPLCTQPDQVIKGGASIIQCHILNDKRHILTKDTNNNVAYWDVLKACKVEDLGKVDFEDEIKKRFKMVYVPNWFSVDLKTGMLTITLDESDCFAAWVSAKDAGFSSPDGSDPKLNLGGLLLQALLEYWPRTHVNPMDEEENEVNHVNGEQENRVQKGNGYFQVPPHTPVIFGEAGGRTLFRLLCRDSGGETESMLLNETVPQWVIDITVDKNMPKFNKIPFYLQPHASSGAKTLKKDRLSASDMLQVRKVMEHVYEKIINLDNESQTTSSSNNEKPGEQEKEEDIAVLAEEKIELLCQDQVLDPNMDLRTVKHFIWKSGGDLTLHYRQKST

In the case of `CCN1C(=O)CN(Cc2ccc(-c3nc(C(F)(F)F)cn3CC)cc2)c2nc(-c3c(OC)ncnc3C3CC3)ncc21` [Compound 34, 2-(4-cyclopropyl-6-methoxypyrimidin-5-yl)-5-ethyl-8-(4-(1-ethyl-4-(trifluoromethyl)-1H-imidazol-2-yl)benzyl)-7,8-dihydropteridin-6(5H)-one], the concentration for half-maximal inhibition (IC50) in experiment [1] was found to be 18.9 nM. In the experiment on MDA-MB-436 cells, this compound gave a GI50 of 39.6 nM.
For `COc1ncnc(C2CC2)c1-c1ncc2c(n1)N(Cc1ccc(-c3nc(C(F)(F)F)cn3C)cc1)CN(C)C2=O` [Compound 36, 7-(4-cyclopropyl-6-methoxypyrimidin-5-yl)-3-methyl-1-(4-(1-methyl-4-(trifluoromethyl)-1H-imidazol-2-yl)benzyl)-2,3-dihydropyrimido[4,5-d]pyrimidin-4(1H)-one], in experiment [1], the IC50 was 82.7 nM. The compound further gave a GI50 with MDA-MB-436 cells of 546 nM.
As for `COc1ncnc(C2CC2)c1-c1ncc2nc(C)c(=O)n(Cc3ccc(-c4nc(C(F)(F)F)cn4C)cc3)c2n1` [Compound 61, 2-(4-cyclopropyl-6-methoxypyrimidin-5-yl)-6-methyl-8-(4-(1-methyl-4-(trifluoromethyl)-1H-imidazol-2-yl)benzyl)pteridin-7(8H)-one], the IC50 in experiment [1] worked out at 36.3 nM. Besides, the 50% growth inhibitory concentration (GI50) in the experiment on MDA-MB-436 cells came to 81.4 nM.
Take `COc1ncnc(C2CC2)c1-c1ncc2c(n1)N(Cc1ccc(-c3nc(C(F)(F)F)cn3C)cc1)C1CCCN1C2=O` (centres unmarked) [Compound 42, 2-(4-cyclopropyl-6-methoxypyrimidin-5-yl)-10-(4-(1-methyl-4-(trifluoromethyl)-1H-imidazol-2-yl)benzyl)-8,9,9a,10-tetrahydropyrimido[4,5-d]pyrrolo[1,2-a]pyrimidin-5(7H)-one]: the 50% inhibitory concentration (IC50) in experiment [1] was found to be 86.6 nM. Further, the concentration for 50% growth inhibition (GI50) in the experiment on MDA-MB-436 cells came to 474 nM.
Turning to `COc1ncnc(C2CC2)c1-c1cc2c(cn1)OCCN2Cc1ccc(-c2nc(C(F)(F)F)cn2C)cc1` [Compound 3, 7-(4-cyclopropyl-6-methoxypyrimidin-5-yl)-1-(4-(1-methyl-4-(trifluoromethyl)-1H-imidazol-2-yl)benzyl)-2,3-dihydro-1H-pyrido[3,4-b][1,4]oxazine], in experiment [1], the concentration for half-maximal inhibition (IC50) is 21.3 nM. The compound further had a GI50 with MDA-MB-436 cells of 47.3 nM.
As to `COc1ncnc(C2CC2)c1-c1ncc2c(n1)N(Cc1ccc(-c3nc(C(F)(F)F)cn3C)cc1)CC(=O)N2` [Compound 5, 2-(4-cyclopropyl-6-methoxypyrimidin-5-yl)-8-(4-(1-methyl-4-(trifluoromethyl)-1H-imidazol-2-yl)benzyl)-7,8-dihydropteridin-6(5H)-one], the 50% inhibitory concentration (IC50) in experiment [1] is 43.7 nM. Moreover, the GI50 in the experiment on MDA-MB-436 cells was 152 nM.
In the case of `COc1ncnc(C2CC2)c1-c1ncc2c(n1)N(Cc1c(F)cc(-c3nc(C(F)(F)F)cn3C)cc1F)CCO2` [Compound 10, 2-(4-cyclopropyl-6-methoxypyrimidin-5-yl)-8-(2,6-difluoro-4-(1-methyl-4-(trifluoromethyl)-1H-imidazol-2-yl)benzyl)-7,8-dihydro-6H-pyrimido[5,4-b][1,4]oxazine], the IC50 in experiment [1] worked out at 106 nM. In addition, in the experiment on MDA-MB-436 cells, growth was halved (GI50) at 507 nM.
For `COc1ncnc(C2CC2)c1-c1ncc2c(n1)N(Cc1ccc(-c3nc(C(F)(F)F)cn3C)cc1)CC(=O)N2C(C)C` [Compound 78, 2-(4-cyclopropyl-6-methoxypyrimidin-5-yl)-8-(4-(1-methyl-4-(trifluoromethyl)-1H-imidazol-2-yl)benzyl)-5-isopropyl-7,8-dihydropteridin-6(5H)-one] the same measures were 96 nM and 53.1 nM.
With `Cn1cc(C(F)(F)F)nc1-c1ccc(CN2C(=O)OC(C)(C)c3cnc(-c4c(OC(F)F)ncnc4C4CC4)nc32)cc1F` [Compound 57, 7-(4-cyclopropyl-6-(difluoromethoxy)pyrimidin-5-yl)-1-(3-fluoro-4-(1-methyl-4-(trifluoromethyl)-1H-imidazol-2-yl)benzyl)-4,4-dimethyl-1,4-dihydro-2H-pyrimido[4,5-d][1,3]oxazin-2-one], in experiment [1], the half-inhibitory concentration (IC50) amounted to 8.1 nM. Moreover, the GI50 in the experiment on MDA-MB-436 cells is 19.8 nM.
On to `COc1ncnc(C2CC2)c1-c1ncc2c(n1)N(Cc1ccc(-c3nc(C(F)(F)F)cn3C)c(F)c1)C(=O)OC2(C)CO` (centres unmarked) [Compound 58, 7-(4-cyclopropyl-6-methoxypyrimidin-5-yl)-1-(3-fluoro-4-(1-methyl-4-(trifluoromethyl)-1H-imidazol-2-yl)benzyl)-4-(hydroxymethyl)-4-methyl-1,4-dihydro-2H-pyrimido[4,5-d][1,3]oxazin-2-one], for which, in experiment [1], the IC50 turned out to be 36.9 nM. For the same compound, in the experiment with MDA-MB-436 cells, the 50% growth inhibitory concentration (GI50) amounted to 81.8 nM.
For `COc1ncnc(C2CC2)c1-c1ncc2c(n1)N(Cc1ccc(-c3nc(C(F)(F)F)cn3C)cc1)CC(=O)N2CC(F)(F)F` [Compound 25, 2-(4-cyclopropyl-6-methoxypyrimidin-5-yl)-5-(2,2,2-trifluoroethyl)-8-(4-(1-methyl-4-(trifluoromethyl)-1H-imidazol-2-yl)benzyl)-7,8-dihydropteridin-6(5H)-one] the same measures were 27.2 nM and 84.8 nM.
Consider `COc1ncnc(C2CC2)c1-c1ncc2c(n1)N(Cc1ccc(-c3nc(C(F)(F)F)cn3C)c(F)c1)CC(=S)N2C` [Compound 83, 2-(4-cyclopropyl-6-methoxypyrimidin-5-yl)-8-(3-fluoro-4-(1-methyl-4-(trifluoromethyl)-1H-imidazol-2-yl)benzyl)-5-methyl-7,8-dihydropteridine-6(5H)-thione], for which, in experiment [1], the half-maximal inhibitory concentration (IC50) amounted to 48.5 nM. Also, in the experiment on MDA-MB-436 cells, the GI50 came out at 23 nM.
For `COc1ncnc(C2CC2)c1-c1ncc2c(=O)n(C)c(=O)n(Cc3ccc(-c4nc(C(F)(F)F)cn4C)cc3)c2n1` [Compound 35, 7-(4-cyclopropyl-6-methoxypyrimidin-5-yl)-3-methyl-1-(4-(1-methyl-4-(trifluoromethyl)-1H-imidazol-2-yl)benzyl)pyrimido[4,5-d]pyrimidine-2,4(1H,3H)-dione], the IC50 in experiment [1] was determined as 69.5 nM. This compound showed a GI50 in the experiment with MDA-MB-436 cells of 364 nM.
As for `COc1ncnc(C2CC2)c1-c1ncc2c(n1)N(Cc1cc(F)c(-c3nc(C(F)(F)F)cn3C)c(F)c1)CCO2` [Compound 62], in experiment [1], the IC50 is 9.8 nM. It took 12.3 nM to inhibit growth in the experiment on MDA-MB-436 cells by half (GI50).
On to `COc1ncnc(C2CC2)c1-c1ncc2c(n1)N(Cc1ccc(-c3nc(C(F)(F)F)cn3C)cc1)C(=O)OC2C` (centres unmarked) [Compound 81, 7-(4-cyclopropyl-6-methoxypyrimidin-5-yl)-4-methyl-1-(4-(1-methyl-4-(trifluoromethyl)-1H-imidazol-2-yl)benzyl)-1,4-dihydro-2H-pyrimido[4,5-d][1,3]oxazin-2-one], for which the 50% inhibitory concentration (IC50) in experiment [1] came to 27.2 nM. Growth in the experiment with MDA-MB-436 cells was halved (GI50) at 69.3 nM.
For `COc1ncnc(C2CC2)c1-c1ncc2c(n1)N(Cc1ccc(-c3nc(C(F)(F)F)cn3C)c(F)c1)CC(=O)N2C` [Compound 65, 2-(4-cyclopropyl-6-methoxypyrimidin-5-yl)-5-methyl-8-(3-fluoro-4-(1-methyl-4-(trifluoromethyl)-1H-imidazol-2-yl)benzyl)-7,8-dihydropteridin-6(5H)-one] the same measures were 28.5 nM and 26.8 nM.
On the same counts, the results for `COc1ncnc(C2CC2)c1-c1ncc2c(n1)N(Cc1ccc(-c3nc(C(F)(F)F)cn3C3CC3)c(F)c1)CC(=O)N2C1CC1` [Compound 77, 2-(4-cyclopropyl-6-methoxypyrimidin-5-yl)-8-(3-fluoro-4-(1-cyclopropyl-4-(trifluoromethyl)-1H-imidazol-2-yl)benzyl)-5-cyclopropyl-7,8-dihydropteridin-6(5H)-one] are 18.4 nM and 48.7 nM.
For the compound `COc1ncnc(C2CC2)c1-c1ncc2c(n1)N(Cc1ccc(-c3nc(C(F)(F)F)cn3C)cc1)C(C)CO2` (centres unmarked) [Compound 23, 2-(4-cyclopropyl-6-methoxypyrimidin-5-yl)-7-methyl-8-(4-(1-methyl-4-(trifluoromethyl)-1H-imidazol-2-yl)benzyl)-7,8-dihydro-6H-pyrimido[5,4-b][1,4]oxazine], the 50% inhibitory concentration (IC50) in experiment [1] worked out at 21.9 nM. The 50% growth inhibitory concentration (GI50) in the experiment with MDA-MB-436 cells worked out at 32.5 nM.
With `COc1ncnc(C2CC2)c1-c1ncc2c(n1)N(Cc1ccc(-c3nc(C(F)(F)F)cn3C)c(F)c1)CC(=O)N2C1CC1` [Compound 71, 2-(4-cyclopropyl-6-methoxypyrimidin-5-yl)-8-(3-fluoro-4-(1-methyl-4-(trifluoromethyl)-1H-imidazol-2-yl)benzyl)-5-cyclopropyl-7,8-dihydropteridin-6(5H)-one], the IC50 in experiment [1] stood at 71.6 nM. In the experiment with MDA-MB-436 cells, this compound gave a GI50 of 74.1 nM.
Take `CCn1cc(C(F)(F)F)nc1-c1ccc(CN2CC(=O)N(C)c3cnc(-c4c(OC)ncnc4C4CC4)nc32)cc1F` [Compound 68, 2-(4-cyclopropyl-6-methoxypyrimidin-5-yl)-5-methyl-8-(3-fluoro-4-(1-ethyl-4-(trifluoromethyl)-1H-imidazol-2-yl)benzyl)-7,8-dihydropteridin-6(5H)-one]: the IC50 in experiment [1] turned out to be 12.1 nM. The same compound came in with a GI50 in the experiment on MDA-MB-436 cells of 27 nM.
Regarding `COc1ncnc(C2CC2)c1-c1ncc2c(n1)N(Cc1cc(F)c(-c3nc(C(F)(F)F)cn3C)cc1F)CCO2` [Compound 63], in experiment [1], the concentration for half-maximal inhibition (IC50) came out at 11.3 nM. The GI50 in the experiment on MDA-MB-436 cells is 24.5 nM.
As for `COc1ncnc(C2CC2)c1-c1ncc2c(n1)N(Cc1ccc(-c3nc(C(F)(F)F)cn3C)cc1)CC(C)O2` (centres unmarked) [Compound 15, 2-(4-cyclopropyl-6-methoxypyrimidin-5-yl)-6-methyl-8-(4-(1-methyl-4-(trifluoromethyl)-1H-imidazol-2-yl)benzyl)-7,8-dihydro-6H-pyrimido[5,4-b][1,4]oxazine], in experiment [1], the concentration for half-maximal inhibition (IC50) is 34 nM. The compound also gave a 50% growth inhibitory concentration (GI50) in the experiment with MDA-MB-436 cells of 20.1 nM.
